Results: PMC7002685, “Inhibition of vascular calcification by inositol phosphates derivatized with ethylene glycol oligomers” (Nature Communications, 2020)
Several values for one entry are separate records, joined by “and”; a condition that tells them apart may be missing. Equal entries are not always repeated.

Tests used:
[1] = system: transformation of CPP1 to CPP2 in pooled human serum; test: In vitro serum calcification propensity (T50) screening assay; format: biochemical; set-up: key to T50: T50 in minutes (time to 50% CPP phase transition); conditions: for activity/unit mass: mean c350 x mw (Na salt); for concentration upon which a T50 of 350 min is reached (c350), mean: mean of n experiments
CPPs = test: TEM and selected area electron diffraction of CPPs; set-up: species or system human
Protocol: To confirm the screening assay data, the hydrodynamic diameter of the CPPs was measured by dynamic light scattering (DLS). […] The CPP2 size deduced by DLS is slightly larger than the size derived from transmission electron microscopy (TEM) (Supplementary Figs. 4c and 7a), the latter being in line with previous work[52].
CPPs were prepared (vide supra) and TEM was performed similar to previous reports. […] […] Herein, cell culture grade 50 mM HEPES (1 M HEPES, 5630056, Thermo Fischer Scientific) was used for washing steps, to avoid high solvent and particle background in TEM. In brief, CPPs at 0.5 mg calcium/mL were drop-casted onto a copper grid, 300 mesh, covered with a continuous 8-nm-thick carbon film. The TEM data were collected with an FEI Tecnai F30 FEG TEM operated at 300 kV acceleration voltage and equipped with a Gatan 749 MultiScan CCD camera (Thermo Fischer Scientific). The bright-field images were collected at ×39,000 magnification using a 10-μm objective aperture. To assess the crystallinity of the sample selected area diffraction patterns were collected in parallel at a camera length of 300 mm. The radii of the rings in the diffraction pattern were measured (1/nm) and the associated interplanar d-spacings (nm) were calculated.

primary human VSMCs [2] = test: VSMC viability (MTS), compounds only; format: cell-based; conditions: for VSMC viability (MTS), % of medium control: compound only
primary human VSMCs [3] = test: CPP1-induced VSMC calcium deposition; format: cell-based; conditions: for VSMC calcium deposition (CPP2 = 100): CPP1 50 µg Ca/mL
Protocol: Calcium deposition on cell monolayers was assessed qualitatively by staining for calcium with 2% w/v Alizarin Red S aqueous solution (pH 4.2) (05600, Fluka Analytical). Cell monolayers in 24-well plates were washed with PBS (10010015, Thermo Fischer), fixed in 10% v/v NBF in PBS (F8775, Sigma-Aldrich) for 45 min at RT, washed with milli-Q water, incubated for 3 min with 300 µL Alizarin Red S solution, washed with milli-Q, and images were acquired using a Axiovert 35 microscope (Zeiss, Carl Zeiss Microscopy GmbH, Jena, Germany) at ×100 magnification. Calcium quantitation was performed after washing cells with PBS and then decalcifying cell monolayers with 0.1 M HCl overnight at 4 °C. Acidic supernatants were centrifuged (10,000 × g, 4 °C, 10 min) and calcium content was assessed using the calcium colorimetric assay.

[4] = Serum calcification propensity assay after 4.5 h incubation in enzymatically active human serum; conditions: Fig. 2e; for ΔT50 after 4.5 h vs 0 h incubation in enzymatically active human serum: compound at c350 concentration, 37 °C, individual donors
[5] = 3 µM, individual experiments, Fig. 2a
[6] = 10 µM, individual experiments, Fig. 2a

COCCOCCO[C@@H]1[C@@H](OP(=O)(O)O)[C@H](OCCOCCOC)[C@@H](OP(=O)(O)O)[C@@H](OP(=O)(O)O)[C@H]1OP(=O)(O)O [(OEG2)2-IP4, 4,6-Di-O-(methoxy-diethyleneglycol)-myo-inositol-1,2,3,5-tetrakis(phosphate)]
T50 ([1]; 0.3 µM, individual experiments, Fig. 2a): 225.667 min and 200.6 min and 198.8 min
T50 ([1]; 1 µM, individual experiments, Fig. 2a): 245.5 min and 222.6 min and 227.433 min
T50 [1, 5]: 295.5 min and 257.733 min and 269.633 min
T50 [1, 6]: 669.833 min and 505.133 min and 608.55 min
T50 ([1]; concentration 0.3 μM, one value per experiment): 225.667 and 200.6 and 198.8
T50 ([1]; concentration 1 μM, one value per experiment): 245.5 and 222.6 and 227.433
T50 ([1]; concentration 3 μM, one value per experiment): 295.5 and 257.733 and 269.633
T50 ([1]; concentration 10 μM, one value per experiment): 669.833 and 505.133 and 608.55
stronger inhibition than (OEG11)2-IP4, activity by unit mass ([1]; from c350 in mg/L): 32%
activity/unit mass [1]: 4.30 mg/L
concentration upon which a T50 of 350 min is reached (c350), mean [1]: 4.9 µM
concentration upon which a T50 of 350 min is reached (c350), single experiment ([1]; one value per experiment (lab journal reference E05-E40)): 4.3 µM and 5.9 µM and 5.0 µM and 3.6 µM and 5.4 µM
Concentration at T50 = 350 min mean ± s.d. (n) (c350) ([1]; pooled human serum, 10 mM calcium, 6 mM phosphate, 37 °C): 4.9 ± 0.8 µM and 4.3 ± 0.7 mg/L
CPP morphology (TEM) (CPPs; 10 µM): matched those of CPP2s
CPP crystallinity (selected area electron diffraction) (CPPs; 100 µM, 14 h, 37 °C): largely amorphous
CPP morphology (TEM) (CPPs; 100 µM, 14 h, 37 °C): spherical-shaped CPP1s
VSMC viability (MTS), % of medium control (primary human VSMCs [2]; 0.01 µM, replicates Fig. 3a): 106.7% and 112.6% and 127.9%
VSMC viability (MTS), % of medium control (primary human VSMCs [2]; 0.1 µM): 105.4% and 101.1% and 125.7%
VSMC viability (MTS), % of medium control (primary human VSMCs [2]; 1 µM): 106.9% and 113.8%
VSMC viability (MTS), % of medium control (primary human VSMCs [2]; 10 µM): 100.7% and 120.7%
VSMC viability (MTS), % of medium control (primary human VSMCs [2]; 100 µM): 101.2% and 99.46% and 122.9%
changes in cell viability (primary human VSMCs [2]; 0.01–100 µM): did not lead to any changes in cell viability
VSMC calcium deposition (CPP2 = 100) (primary human VSMCs [3]; 1 µM, replicates Fig. 3g): 54.74% and 45.04% and 38.43%
VSMC calcium deposition (CPP2 = 100) (primary human VSMCs [3]; 10 µM): 14.07% and 5.29% and 7.26%
VSMC calcium deposition (CPP2 = 100) (primary human VSMCs [3]; 30 µM): 8.51% and 7.29% and 1.56%
VSMC calcium deposition (CPP2 = 100) (primary human VSMCs [3]; 100 µM): 1.78% and 6.75% and 5.25%
concentration from which calcium deposition was reduced to the level of control (primary human VSMCs [3]; CPP1): ≥ 10 µM
ΔT50 after 4.5 h vs 0 h incubation in enzymatically active human serum [4]: -10 min and 0 min and 51 min and 10 min

O=P(O)(O)O[C@H]1[C@H](OP(=O)(O)O)[C@@H](OP(=O)(O)O)[C@H](OP(=O)(O)O)[C@@H](OP(=O)(O)O)[C@H]1OP(=O)(O)O [IP6, myo-Inositol hexakisphosphate]
T50 [1, 5]: 234.667 min and 274 min and 233.967 min and 253.933 min and 243.267 min and 241.767 min and 246.2 min and 235.9 min and 228.633 min and 203.267 min and 288.2 min and 222.867 min and 230.267 min and 213.667 min and 216.7 min and 265.633 min and 255.267 min
T50 ([1]; 4.1 µM, individual experiments, Fig. 2a): 217.4 min and 239.4 min and 277.7 min and 241.067 min
T50 ([1]; 5 µM, individual experiments, Fig. 2a): 249.8 min and 203.1 min and 210 min
T50 ([1]; 8.2 µM, individual experiments, Fig. 2a): 256.2 min
T50 [1, 6]: 257.5 min and 310.933 min and 271.067 min and 277.3 min and 252.767 min and 292.233 min and 259.167 min and 287.2 min and 285.433 min and 258.3 min and 249.2 min and 255.267 min and 337.4 min and 269.2 min and 241.433 min and 220.9 min and 227.45 min and 265.233 min and 247.333 min and 278 min and 268.867 min
T50 ([1]; 15 µM, individual experiments, Fig. 2a): 257.433 min and 252.1 min and 309.067 min and 247.867 min
T50 ([1]; 20 µM, individual experiments, Fig. 2a): 287.15 min and 265.7 min and 269.8 min
T50 ([1]; 30 µM, individual experiments, Fig. 2a): 345.45 min and 406.133 min and 372.8 min and 351.75 min and 343.7 min and 344.2 min and 259.35 min and 335.5 min and 347.9 min and 378.6 min and 321.233 min and 338 min and 297.667 min and 289.1 min and 328.133 min and 313.633 min and 374.867 min and 311.7 min and 330.9 min and 290.033 min and 322.15 min and 364.5 min and 339.867 min
T50 ([1]; 50 µM, individual experiments, Fig. 2a): 415 min and 521.55 min and 441.5 min and 442 min and 442.167 min and 430.55 min and 469.15 min and 469.7 min and 444.5 min and 341.15 min and 548.25 min and 437.6 min and 408.433 min and 339.067 min and 334.933 min and 396.5 min and 364.133 min and 373.7 min and 353.2 min and 360.8 min and 372.45 min and 446.2 min and 371.033 min and 410.7 min
activity/unit mass [1]: 30.85 mg/L
concentration upon which a T50 of 350 min is reached (c350), mean [1]: 35.0 µM
CPP morphology (TEM) (CPPs; 100 µM, 14 h, 37 °C): spindle-shaped CPP2s
VSMC viability (MTS), % of medium control (primary human VSMCs [2]; 0.01 µM, replicates Fig. 3a): 107.6% and 117.7% and 127.9%
VSMC viability (MTS), % of medium control (primary human VSMCs [2]; 0.1 µM): 101.2% and 116.5% and 123.9%
VSMC viability (MTS), % of medium control (primary human VSMCs [2]; 1 µM): 102.4% and 110.2% and 123.7%
VSMC viability (MTS), % of medium control (primary human VSMCs [2]; 10 µM): 107.1% and 105.1% and 128.6%
VSMC viability (MTS), % of medium control (primary human VSMCs [2]; 100 µM): 108.9% and 116.9% and 143.6%
VSMC calcium deposition (CPP2 = 100) (primary human VSMCs [3]; 3 µM): 82.15% and 53.35% and 45.33%
VSMC calcium deposition (CPP2 = 100) (primary human VSMCs [3]; 100 µM): 138.44% and 188.13% and 99%
ΔT50 after 4.5 h vs 0 h incubation in enzymatically active human serum [4]: -69 min and -77 min and -76 min and -70 min
decrease of T50 from baseline after 4.5-h incubation in enzymatically active serum ([4]; mean): 73 min
